# Measurements from US12612412B2, “Antiviral heterocyclic compounds” (Enanta Pharmaceuticals, Inc., priority 2021, dated 2026).
# What was measured:
# [1] = system: genotype A, "Long" strain RSV; test: RSV-A assay (CPE protection in Hep-2 cells, ATPlite readout); assay type: cell-based, Human respiratory syncytial virus (HRSV); conditions: human respiratory syncytial virus, genotype A “Long” strain RSV, MOI 0.1, CPE protection, read-out: Human RSV-A (“Long”)
# Method in brief: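 Hep-2 cells (8,000/well) were treated with 2-fold serial compound dilutions in duplicate and infected with RSV at MOI 0.1. After 5 days, protection from cytopathic effect was measured as cell viability by ATPlite luminescence, and EC50 values were derived.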
# [2] = system: recombinant HMPV CAN97-83 containing eGFP (MPV-GFP1); test: HMPV antiviral assay Method-A (MPV-GFP1 eGFP fluorescence in Vero E6 cells); assay type: cell-based, Human metapneumovirus (HMPV); conditions: human metapneumovirus, Vero C1008, 120 h, read-out: HMPV EC50
# Method in brief: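 Vero E6 cells in serum-free OptiMEM with 0.5 μg/mL TPCK-trypsin were infected with eGFP-expressing HMPV CAN97-83 at MOI 0.05, with 8-point twofold dilutions from 8 or 2 μM (0.5% DMSO). After 5 days at 32° C, eGFP fluorescence gave % inhibition versus infected untreated wells. EC50 came from four-parameter logistic fits.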
Compound,EC50 [1] [nM],EC50 [2] [nM]
Cc1cc2cc(C(=O)NC[C@](O)(c3cc4c(c(-c5ccc(F)cc5)n3)OC[C@]4(C)C(N)=O)C(F)(F)F)cc(OC3CC3)c2nc1C [Example 178],< 200,> 500
Cc1cc2cc(C(=O)NC[C@](O)(c3cc4c(c(-c5ccc(F)cc5)n3)OC[C@]4(C)C(N)=O)C(F)(F)F)cc(OC(F)(F)F)c2nc1C [Example 179],< 200,> 500
Cc1cc2cc(C(=O)NC[C@](O)(c3cc4c(c(-c5ccc(F)c(Cl)c5)n3)OC[C@]4(C)C(N)=O)C(F)(F)F)cc(Cl)c2nc1C [Example 182],< 200,< 500
Cc1cc2cc(C(=O)NC[C@](O)(c3cc4c(c(-c5ccc(F)c(Cl)c5)n3)OC[C@]4(C)C(N)=O)C(F)(F)F)cc(OC(F)(F)F)c2nc1C [Example 184],< 200,> 500
C[C@]1(C(N)=O)COc2c1cc([C@@](O)(CNC(=O)c1cc(Cl)c3[nH]ccc3c1)C(F)(F)F)nc2-c1ccc(F)cc1 [Example 199],< 200,> 500
COc1cc(C(=O)NC[C@](O)(c2cc3c(c(-c4ccc(F)cc4)n2)OC[C@]3(C)C(N)=O)C(F)(F)F)cc2cc[nH]c12 [Example 200],< 200,> 500
COC(=O)Nc1cc(C(=O)NC[C@](O)(c2cc3c(c(-c4ccc(F)cc4)n2)OC[C@]3(C)C(N)=O)C(F)(F)F)cc2cc(C)cnc12 [Example 210],< 200,< 500
COc1cc(C(=O)NC[C@](O)(c2cc3c(c(-c4ccc(F)cc4)n2)OC[C@]3(C)C(N)=O)C(F)(F)F)cn2cc(C3CC3)nc12 [Example 217],< 200,< 500
C[C@]1(C(N)=O)COc2c1cc([C@@](O)(CNC(=O)c1cc(NC(=O)NC3CC3)c3ncc(Cl)cc3c1)C(F)(F)F)nc2-c1ccc(F)cc1 [Example 218],< 200,< 500
Cc1cnc2c(NC(=O)NC3CC3)cc(C(=O)NC[C@](O)(c3cc4c(c(-c5ccc(F)c(Cl)c5)n3)OC[C@]4(C)C(N)=O)C(F)(F)F)cc2c1 [Example 219],< 200,< 500
C[C@]1(C(N)=O)COc2c1cc([C@@](O)(CNC(=O)c1cc(NC(=O)NC3CC3)c3ncc(Cl)cc3c1)C(F)(F)F)nc2-c1ccc(F)c(Cl)c1 [Example 220],< 200,> 500
Cc1cnc2c(NC(=O)N3CCC3)cc(C(=O)NC[C@](O)(c3cc4c(c(-c5ccc(F)cc5)n3)OC[C@]4(C)C(N)=O)C(F)(F)F)cc2c1 [Example 221],< 200,> 500
C[C@]1(C(N)=O)COc2c1cc([C@@](O)(CNC(=O)c1cc(NC(=O)N3CCC3)c3ncc(Cl)cc3c1)C(F)(F)F)nc2-c1ccc(F)cc1 [Example 222],< 200,> 500
Cc1cnc2c(NC(N)=O)cc(C(=O)NC[C@](O)(c3cc4c(c(-c5ccc(F)cc5)n3)OC[C@]4(C)C(N)=O)C(F)(F)F)cc2c1 [Example 223],< 200,> 500
C[C@]1(C(N)=O)COc2c1cc([C@@](O)(CNC(=O)c1cc(NC(N)=O)c3ncc(Cl)cc3c1)C(F)(F)F)nc2-c1ccc(F)cc1 [Example 224],< 200,> 500
Cc1cnc2c(NC(=O)N3CCCC3)cc(C(=O)NC[C@](O)(c3cc4c(c(-c5ccc(F)cc5)n3)OC[C@]4(C)C(N)=O)C(F)(F)F)cc2c1 [Example 226],< 200,> 500
CC[C@]1(C(N)=O)COc2c1cc([C@@](O)(CNC(=O)c1cc(OC)c3nn(C(F)F)cc3c1)C(F)(F)F)nc2-c1ccc(F)cc1 [Example 234],< 200,< 500
CC[C@]1(C(N)=O)COc2c1cc([C@@](O)(CNC(=O)c1cc(OC3CC3)c3ncccc3c1)C(F)(F)F)nc2-c1ccc(F)cc1 [Example 235],< 200,< 500

Compound,EC50 [1] [nM],EC50 [2] [nM]
NC(=O)[C@@]1(C2CC2)COc2c1cc([C@@](O)(CNC(=O)c1cc(F)c3nc(N)sc3c1)C(F)(F)F)nc2-c1ccc(F)cc1 [Example 263],< 200,< 500
COc1cc(C(=O)NC[C@](O)(c2cc3c(c(-c4ccc(F)cc4)n2)OC[C@@]3(C(N)=O)C2CC2)C(F)(F)F)cc2cc(C(F)(F)F)cnc12 [Example 265],< 200,< 500
COc1cc(C(=O)NC[C@](O)(c2cc3c(c(-c4ccc(F)cc4)n2)OC[C@@]3(C(N)=O)C2CC2)C(F)(F)F)cc2cn(C(F)F)nc12 [Example 267],< 200,< 500
COc1cc(C(=O)NC[C@](O)(c2cc3c(c(-c4ccc(F)cc4)n2)OC[C@@]3(C(N)=O)C2CC2)C(F)(F)F)cc2cccnc12 [Example 268],< 200,> 500
NC(=O)[C@@]1(C2CC2)COc2c1cc([C@@](O)(CNC(=O)c1cc(OC3CC3)c3ncccc3c1)C(F)(F)F)nc2-c1ccc(F)cc1 [Example 270],< 200,< 500
COc1cc(C(=O)NC[C@](O)(c2cc3c(c(-c4ccc(F)cc4)n2)OC[C@@]3(C(N)=O)C2CC2)C(F)(F)F)cc2cn(C3CC3)nc12 [Example 280],< 200,< 500
COc1cc(C(=O)NC[C@](O)(c2cc3c(c(-c4ccc(Cl)c(F)c4)n2)OC[C@]3(C)C(N)=O)C(F)(F)F)cc2cn(C(F)F)nc12 [Example 300],< 200,< 500
COc1cc(C(=O)NC[C@](O)(c2cc3c(c(-c4ccc(Cl)c(F)c4)n2)OC[C@]3(C)C(N)=O)C(F)(F)F)cc2cc(C3CC3)nn12 [Example 301],< 200,< 500
C[C@]1(C(N)=O)COc2c1cc([C@@](O)(CNC(=O)c1cc(F)c3nc(N)sc3c1)C(F)(F)F)nc2-c1ccc(Cl)c(F)c1 [Example 305],< 200,< 500
C[C@]1(C(N)=O)COc2c1cc([C@@](O)(CNC(=O)c1cc(F)c3nc(N)sc3c1)C(F)(F)F)nc2-c1ccc(Cl)c(Cl)c1 [Example 306],< 200,< 500
C[C@]1(C(N)=O)COc2c1cc([C@@](O)(CNC(=O)c1cc(F)c3nc(N)sc3c1)C(F)(F)F)nc2-c1ccc(Cl)cc1 [Example 307],< 200,< 500
C[C@]1(C(N)=O)COc2c1cc([C@@](O)(CNC(=O)c1cc(F)c3nc(N)sc3c1)C(F)(F)F)nc2-c1ccc(F)c(F)c1 [Example 308],< 200,< 500
C[C@]1(C(N)=O)COc2c1cc([C@@](O)(CNC(=O)c1cc(F)c3nc(N)sc3c1)C(F)(F)F)nc2-c1ccc(C#N)cc1 [Example 309],< 200,> 500
COc1cc(C(=O)NC[C@](O)(c2cc3c(c(-c4ccc(Cl)cc4)n2)OC[C@]3(C)C(N)=O)C(F)(F)F)cc2cc(C(F)(F)F)cnc12 [Example 314],< 200,< 500
COc1cc(C(=O)NC[C@](O)(c2cc3c(c(-c4ccc(F)c(F)c4)n2)OC[C@]3(C)C(N)=O)C(F)(F)F)cc2cc(C(F)(F)F)cnc12 [Example 315],< 200,< 500
C[C@]1(C(N)=O)COc2c1cc([C@@](O)(CNC(=O)c1cc(OC3CC3)n3nc(C4CC4)cc3c1)C(F)(F)F)nc2-c1ccc(F)cc1 [Example 321],< 200,< 500
COc1cc(C(=O)NC[C@](O)(c2cc3c(c(-c4ccc(F)cc4)n2)OC[C@]3(C)C(N)=O)C(F)(F)F)cc2cc(C3CCC3)nn12 [Example 322],< 200,> 500
